Experimental data as given in US20240207263A1, “SELECTIVE MODULATORS OF ATAXIA TELA[…] (ATM) KINASE AND USES THEREOF” (priority 2021, published 2024).

Experiments:
[1] = system: phosp-KAP1 in MCF-7 cells; test: phosp-KAP1 MCF-7 cellular potency assay (Assay f); format: cell-based; details: Homo sapiens, MCF7; MCF-7 cells, etoposide; read-out: Etoposide MCF-7 cellular IC50
Protocol: Assay f): phosp-KAP1 MCF-7 Cellular Potency
MCF-7 cells were seeded to a 384-well cell-culture plate, 25 μl/well which were incubated at 37° C. and 5% CO2 for 24 hr. Test compounds were added to the 384-well plates. Etoposide at final concentration of 100 μM was then added to each well except Vehicle control wells, which were incubated at 37° C. and 5% CO2 for 1 hour. After medium removal, cells were fixed by the addition of 25 μl/well of 8% paraformaldehyde in PBSA and incubated for 20 minutes at room temperature. After the plates were rinsed 3 times with PBSA, 50 ul permeabilization buffer (0.1% Triton X-100 in PBS) was added and the plates were incubated for 20 minutes at room temperature. After the plates were rinsed with PBSA, block the cells by adding 50 μl of Odyssey Blocking Buffer in 384-well plate and then incubate for 1.5 hours at room temperature. Remove blocking buffer by Plate washer (BioTek ELx405 select CW). […] The plates were rinsed 5 times with PBST (0.1% Tween-20 in PBS).
• 1) Fluorescence intensity (FI) was detected for each well. • 2) % inhibition is calculated as follow:
[formula] • FIpositive: The average FI for the positive controls across the plate. • FIvehicle: The average FI for negative controls across the plate. • 3) Calculate IC50 and Plot effect-dose curve of compounds: • Calculate IC50 by fitting % inhibition values and log of compound concentrations to nonlinear regression (dose response−variable slope) with Graphpad prism 6.0.
Y=Bottom+(Top−Bottom)/(1+10^((Log IC50−X)*HillSlope)) • X: log of compounds concentration; Y: % inhibition

ATM = ATM (Homo sapiens (Human), UniProt Q13315); test: biochemical; format: biochemical; details: read-out: ATM IC50
Excerpt: Assay a): ATM Biochemical Potency
Data was collected by Caliper.

ATM, sequence (Q13315 whole entry, looked up): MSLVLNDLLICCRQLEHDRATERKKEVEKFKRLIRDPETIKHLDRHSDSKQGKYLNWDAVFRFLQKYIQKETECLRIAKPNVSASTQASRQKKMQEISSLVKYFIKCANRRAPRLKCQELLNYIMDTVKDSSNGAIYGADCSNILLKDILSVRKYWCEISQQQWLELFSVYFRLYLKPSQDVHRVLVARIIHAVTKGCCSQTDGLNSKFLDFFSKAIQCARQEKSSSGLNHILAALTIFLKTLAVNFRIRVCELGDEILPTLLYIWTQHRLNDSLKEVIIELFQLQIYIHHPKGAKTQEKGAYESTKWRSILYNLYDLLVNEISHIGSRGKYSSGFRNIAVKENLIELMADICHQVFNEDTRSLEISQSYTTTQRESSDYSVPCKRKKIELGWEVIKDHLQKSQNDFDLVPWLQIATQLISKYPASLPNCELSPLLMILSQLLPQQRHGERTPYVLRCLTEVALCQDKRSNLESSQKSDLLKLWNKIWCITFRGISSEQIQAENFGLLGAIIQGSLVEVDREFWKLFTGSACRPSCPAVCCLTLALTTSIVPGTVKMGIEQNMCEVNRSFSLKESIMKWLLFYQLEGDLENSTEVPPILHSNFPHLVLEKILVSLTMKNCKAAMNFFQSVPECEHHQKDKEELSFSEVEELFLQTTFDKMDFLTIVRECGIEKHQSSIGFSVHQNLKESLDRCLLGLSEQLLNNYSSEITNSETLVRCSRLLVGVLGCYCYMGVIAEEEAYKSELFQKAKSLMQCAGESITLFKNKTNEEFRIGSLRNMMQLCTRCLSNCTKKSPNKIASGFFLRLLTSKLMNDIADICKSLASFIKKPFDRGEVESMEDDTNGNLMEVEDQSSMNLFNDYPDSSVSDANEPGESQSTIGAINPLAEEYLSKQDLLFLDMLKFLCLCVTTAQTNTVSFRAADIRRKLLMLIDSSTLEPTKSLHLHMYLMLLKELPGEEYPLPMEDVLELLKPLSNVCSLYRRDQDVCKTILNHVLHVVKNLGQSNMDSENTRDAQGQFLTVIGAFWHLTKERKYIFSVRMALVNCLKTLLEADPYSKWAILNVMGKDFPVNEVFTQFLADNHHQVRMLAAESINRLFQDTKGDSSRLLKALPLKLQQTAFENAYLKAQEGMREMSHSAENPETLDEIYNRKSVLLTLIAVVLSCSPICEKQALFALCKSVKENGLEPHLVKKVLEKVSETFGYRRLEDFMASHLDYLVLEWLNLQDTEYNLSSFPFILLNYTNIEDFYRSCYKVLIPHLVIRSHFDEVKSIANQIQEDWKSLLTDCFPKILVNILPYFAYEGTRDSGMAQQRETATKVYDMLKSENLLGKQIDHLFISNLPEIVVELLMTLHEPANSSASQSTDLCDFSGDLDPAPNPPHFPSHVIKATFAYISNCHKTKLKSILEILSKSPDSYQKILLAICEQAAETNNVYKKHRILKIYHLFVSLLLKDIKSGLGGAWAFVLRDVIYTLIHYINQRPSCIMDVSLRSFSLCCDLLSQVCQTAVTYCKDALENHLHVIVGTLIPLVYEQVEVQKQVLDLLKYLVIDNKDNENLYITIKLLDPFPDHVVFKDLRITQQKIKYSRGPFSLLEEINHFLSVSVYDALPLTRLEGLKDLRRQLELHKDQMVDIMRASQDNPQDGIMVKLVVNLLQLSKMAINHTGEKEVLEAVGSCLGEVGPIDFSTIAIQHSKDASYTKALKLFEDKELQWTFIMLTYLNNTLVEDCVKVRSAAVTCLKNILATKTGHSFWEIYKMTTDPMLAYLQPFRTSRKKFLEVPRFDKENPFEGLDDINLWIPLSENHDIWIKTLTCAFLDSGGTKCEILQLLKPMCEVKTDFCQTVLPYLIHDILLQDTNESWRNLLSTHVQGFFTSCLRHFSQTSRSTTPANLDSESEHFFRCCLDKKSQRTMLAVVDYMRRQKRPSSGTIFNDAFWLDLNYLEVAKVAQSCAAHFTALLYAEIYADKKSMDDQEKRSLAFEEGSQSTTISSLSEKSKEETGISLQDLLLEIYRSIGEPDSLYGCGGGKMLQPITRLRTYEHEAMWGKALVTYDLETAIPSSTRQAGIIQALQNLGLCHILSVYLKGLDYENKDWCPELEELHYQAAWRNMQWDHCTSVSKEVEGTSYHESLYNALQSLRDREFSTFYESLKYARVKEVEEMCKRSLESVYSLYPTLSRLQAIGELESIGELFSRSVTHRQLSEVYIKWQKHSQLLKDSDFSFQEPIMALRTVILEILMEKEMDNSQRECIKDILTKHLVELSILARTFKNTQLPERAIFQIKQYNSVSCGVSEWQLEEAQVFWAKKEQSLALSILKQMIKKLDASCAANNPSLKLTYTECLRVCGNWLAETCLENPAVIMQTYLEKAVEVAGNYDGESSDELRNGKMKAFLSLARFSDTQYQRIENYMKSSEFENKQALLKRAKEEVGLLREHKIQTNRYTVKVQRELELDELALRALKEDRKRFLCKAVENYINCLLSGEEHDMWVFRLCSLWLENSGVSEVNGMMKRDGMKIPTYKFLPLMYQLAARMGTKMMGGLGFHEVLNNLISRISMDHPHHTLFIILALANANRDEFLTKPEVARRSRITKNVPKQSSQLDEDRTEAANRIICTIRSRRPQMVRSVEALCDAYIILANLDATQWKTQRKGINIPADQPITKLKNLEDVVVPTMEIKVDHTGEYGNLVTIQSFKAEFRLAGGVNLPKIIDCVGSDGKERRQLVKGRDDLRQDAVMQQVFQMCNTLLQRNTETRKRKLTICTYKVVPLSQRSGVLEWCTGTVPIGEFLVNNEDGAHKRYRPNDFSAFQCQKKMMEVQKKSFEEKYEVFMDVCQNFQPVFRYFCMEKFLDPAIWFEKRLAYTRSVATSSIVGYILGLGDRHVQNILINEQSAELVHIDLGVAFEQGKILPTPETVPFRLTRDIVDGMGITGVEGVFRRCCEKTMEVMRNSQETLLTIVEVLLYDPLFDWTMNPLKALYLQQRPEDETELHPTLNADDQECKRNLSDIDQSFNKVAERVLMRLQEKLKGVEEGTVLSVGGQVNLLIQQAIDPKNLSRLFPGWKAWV

Row | SMILES | IC50 [1] [nM] | IC50 (ATM) [nM]
1 | CC(C)n1c(=O)n(C)c2nnc3ccc(-c4ccc([C@@H](C)OCCN5CCC(OC(F)F)C5)nc4)cc3c21 (stereo partly drawn) [Example 54, 8-(6-((1R)-1-(2-(3-(difluoromethoxy)pyrrolidin-1-yl)ethoxy)ethyl)pyridin-3-yl)-1-isopropyl-3-methyl-1H-imidazo[4,5-c]cinnolin-2(3H)-one] | 17 | –
2 | CC(C)n1c(=O)n(C)c2nnc3ccc(-c4ccc([C@@H](C)OCCN5CCC6(CC5)CC6)nc4)cc3c21 [Example 55, (R)-8-(6-(1-(2-(6-azaspiro[2.5]octan-6-yl)ethoxy)ethyl)pyridin-3-yl)-1-isopropyl-3-methyl-1H-imidazo[4,5-c]cinnolin-2(3H)-one] | 11 | 3.2
3 | CO[C@H]1CCN(CCO[C@H](C)c2ccc(-c3ccc4nnc5c(c4c3)n(C(C)C)c(=O)n5C)cn2)C1 [Example 59, 1-isopropyl-8-(6-((R)-1-(2-((S)-3-methoxypyrrolidin-1-yl)ethoxy)ethyl)pyridin-3-yl)-3-methyl-1H-imidazo[4,5-c]cinnolin-2(3H)-one] | 65 | 8.3
4 | CC(C)n1c(=O)n(C)c2nnc3ccc(-c4ccc([C@@H](C)OCCN5CCC6(COC6)C5)nc4)cc3c21 [Example 86, (R)-8-(6-(1-(2-(2-oxa-6-azaspiro[3.4]octan-6-yl)ethoxy)ethyl)pyridin-3-yl)-1-isopropyl-3-methyl-1H-imidazo[4,5-c]cinnolin-2(3H)-one] | 12 | 3.6
5 | Cn1c(=O)n(C2CCOCC2)c2c3cc(-c4ccc(COCCN5CCC(C)(C)C5)nc4)ccc3nnc21 [Example 97, 8-(6-((2-(3,3-dimethylpyrrolidin-1-yl)ethoxy)methyl)pyridin-3-yl)-3-methyl-1-(tetrahydro-2H-pyran-4-yl)-1H-imidazo[4,5-c]cinnolin-2(3H)-one] | 43 | 14
6 | C[C@@H](OCCN1CCC(C)(C)CC1)c1ccc(-c2ccc3nnc4c(c3c2)n(C2CCOCC2)c(=O)n4C)cn1 [Example 103, (R)-8-(6-(1-(2-(4,4-dimethylpiperidin-1-yl)ethoxy)ethyl)pyridin-3-yl)-3-methyl-1-(tetrahydro-2H-pyran-4-yl)-1H-imidazo[4,5-c]cinnolin-2(3H)-one] | 20 | 3.9
7 | CO[C@H]1CCN(CCO[C@H](C)c2ccc(-c3ccc4nnc5c(c4c3)n(C3CCOCC3)c(=O)n5C)cn2)C1 [Example 105, 8-(6-((R)-1-(2-((S)-3-methoxypyrrolidin-1-yl)ethoxy)ethyl)pyridin-3-yl)-3-methyl-1-(tetrahydro-2H-pyran-4-yl)-1H-imidazo[4,5-c]cinnolin-2(3H)-one] | 36 | –
8 | COC1CCN(CCO[C@H](C)c2ccc(-c3ccc4nnc5c(c4c3)n(C3CCOCC3)c(=O)n5C)cn2)CC1 [Example 110, (R)-8-(6-(1-(2-(4-methoxypiperidin-1-yL)ethoxy)ethyl)pyridin-3-yl)-3-methyl-1-(tetrahydro-2H-pyran-4-yl)-1H-imidazo[4,5-c]cinnolin-2(3H)-one] | 13 | 6.9
9 | C[C@@H](OCCN1CCC(C(F)(F)F)CC1)c1ccc(-c2ccc3nnc4c(c3c2)n(C2CCOCC2)c(=O)n4C)cn1 [Example 117, (R)-3-methyl-1-(tetrahydro-2H-pyran-4-yl)-8-(6-(1-(2-(4-(trifluoromethyl)piperidin-1-yl)ethoxy)ethyl)pyridin-3-yl)-1H-imidazo[4,5-c]cinnolin-2(3H)-one] | 65 | 3.7
10 | C[C@@H](OCCN1CCC2(CCC2)C1)c1ccc(-c2ccc3nnc4c(c3c2)n(C2CCOCC2)c(=O)n4C)cn1 [Example 118, (R)-8-(6-(1-(2-(6-azaspiro[3.4]octan-6-yl)ethoxy)ethyl)pyridin-3-yl)-3-methyl-1-(tetrahydro-2H-pyran-4-yl)-1H-imidazo[4,5-c]cinnolin-2(3H)-one] | 71 | 4.1
11 | CC(C)n1c(=O)n(C)c2nnc3cc(F)c(-c4ccc(COCCN5CCC(C)(C)CC5)nc4)cc3c21 [Example 133, 8-(6-((2-(4,4-dimethylpiperidin-1-yl)ethoxy)methyl)pyridin-3-yl)-7-fluoro-1-isopropyl-3-methyl-1H-imidazo[4,5-c]cinnolin-2(3H)-one] | 44 | 13
12 | CO[C@H]1C[C@H](n2c(=O)n(C)c3nnc4ccc(-c5ccc(COCCN6CC7CC7C6)nc5)cc4c32)C1 (stereo partly drawn) [Example 169, 8-(6-((2-(3-azabicyclo[3.1.0]hexan-3-yl)ethoxy)methyl)pyridin-3-yl)-1-(trans-3-methoxycyclobutyl)-3-methyl-1H-imidazo[4,5-c]cinnolin-2(3H)-one] | – | 42
13 | CO[C@H]1C[C@@H](n2c(=O)n(C)c3nnc4ccc(-c5ccc([C@@H](C)OCCN6CCC7(CC6)CC7)nc5)cc4c32)C1 [Example 170, 8-(6-((R)-1-(2-(6-azaspiro[2.5]octan-6-yl)ethoxy)ethyl)pyridin-3-yl)-1-(cis-3-methoxycyclobutyl)-3-methyl-1H-imidazo[4,5-c]cinnolin-2(3H)-one] | – | 1.6
14 | CO[C@H]1C[C@@H](n2c(=O)n(C)c3nnc4ccc(-c5ccc([C@@H](C)OCCN6CCC7(CC7)C6)nc5)cc4c32)C1 [Example 171, 8-(6-((R)-1-(2-(5-azaspiro[2.4]heptan-5-yl)ethoxy)ethyl)pyridin-3-yl)-1-(cis-3-methoxycyclobutyl)-3-methyl-1H-imidazo[4,5-c]cinnolin-2(3H)-one] | – | 2.5
15 | CO[C@H]1C[C@@H](n2c(=O)n(C)c3nnc4ccc(-c5ccc(COCCN6CCCC6)nc5)cc4c32)C1 [Example 172, 1-(cis-3-methoxycyclobutyl)-3-methyl-8-(6-((2-(pyrrolidin-1-yl)ethoxy)methyl)pyridin-3-yl)-1H-imidazo[4,5-c]cinnolin-2(3H)-one] | – | 21
16 | CO[C@H]1C[C@@H](n2c(=O)n(C)c3nnc4ccc(-c5ccc(COCCN6CCCCC6)nc5)cc4c32)C1 [Example 173, 1-(cis-3-methoxycyclobutyl)-3-methyl-8-(6-((2-(piperidin-1-yl)ethoxy)methyl)pyridin-3-yl)-1H-imidazo[4,5-c]cinnolin-2(3H)-one] | – | 32
17 | CO[C@H]1C[C@@H](n2c(=O)n(C)c3nnc4ccc(-c5ccc(COCCN(C)C)nc5)cc4c32)C1 [Example 176, 8-(6-((2-(dimethylamino)ethoxy)methyl)pyridin-3-yl)-1-(cis-3-methoxycyclobutyl)-3-methyl-1H-imidazo[4,5-c]cinnolin-2(3H)-one] | – | 65
18 | Cn1c(=O)n(C2COC2)c2c3cc(-c4ccc(COCCN5CCC(F)CC5)nc4)ccc3nnc21 [Example 179, 8-(6-((2-(4-fluoropiperidin-1-yl)ethoxy)methyl)pyridin-3-yl)-3-methyl-1-(oxetan-3-yl)-1H-imidazo[4,5-c]cinnolin-2(3H)-one] | – | 729
19 | Cn1c(=O)n([C@H]2CCCOC2)c2c3cc(-c4ccc(COCCN5CCC(F)CC5)nc4)ccc3nnc21 [Example 182, (S)-8-(6-((2-(4-fluoropiperidin-1-yl)ethoxy)methyl)pyridin-3-yl)-3-methyl-1-(tetrahydro-2H-pyran-3-yl)-1H-imidazo[4,5-c]cinnolin-2(3H)-one] | – | 21
20 | Cn1c(=O)n([C@H]2CCCOC2)c2c3cc(-c4ccc(COCCN5CC6CC6C5)nc4)ccc3nnc21 (stereo partly drawn) [Example 183, 8-(6-((2-(3-azabicyclo[3.1.0]hexan-3-yl)ethoxy)methyl)pyridin-3-yl)-3-methyl-1-((S)-tetrahydro-2H-pyran-3-yl)-1H-imidazo[4,5-c]cinnolin-2(3H)-one] | – | 20
21 | CC(C)n1c(=O)n(C)c2nnc3ccc(-c4ccc([C@@H](C)OCC(=O)O)nc4)cc3c21 [Example 216, (R)-2-(1-(5-(1-isopropyl-3-methyl-2-oxo-2,3-dihydro-1H-imidazo[4,5-c]cinnolin-8-yl)pyridin-2-yl)ethoxy)acetic acid] | – | 339
22 | CC(C)n1c(=O)n(C)c2nnc3ccc(-c4ccc(C(C)(C)OCCN5CC6CC6C5)nc4)cc3c21 (stereo not shown) [Example 217, 8-(6-(2-(2-(3-azabicyclo[3.1.0]hexan-3-yl)ethoxy)propan-2-yl)pyridin-3-yl)-1-isopropyl-3-methyl-1H-imidazo[4,5-c]cinnolin-2(3H)-one] | – | 72
23 | CCC(OCCN1CCCC1)c1ccc(-c2ccc3nnc4c(c3c2)n(C(C)C)c(=O)n4C)cn1 (stereo not shown) [Example 219, 1-isopropyl-3-methyl-8-(6-(1-(2-(pyrrolidin-1-yl)ethoxy)propyl)pyridin-3-yl)-1H-imidazo[4,5-c]cinnolin-2(3H)-one] | – | 57
24 | CCCC(OCCN1CCCC1)c1ccc(-c2ccc3nnc4c(c3c2)n(C(C)C)c(=O)n4C)cn1 (stereo not shown) [Example 220, 1-isopropyl-3-methyl-8-(6-(1-(2-(pyrrolidin-1-yl)ethoxy)butyl)pyridin-3-yl)-1H-imidazo[4,5-c]cinnolin-2(3H)-one] | – | 147
25 | CC(C)C(OCCN1CCCC1)c1ccc(-c2ccc3nnc4c(c3c2)n(C(C)C)c(=O)n4C)cn1 (stereo not shown) [Example 221, 1-isopropyl-3-methyl-8-(6-(2-methyl-1-(2-(pyrrolidin-1-yl)ethoxy)propyl)pyridin-3-yl)-1H-imidazo[4,5-c]cinnolin-2(3H)-one] | – | 156
